Source: patent US5202351A, “1-phenylalkyl-3-phenylurea derivative” (Mitsubishi Kasei Corporation, priority 1990, dated 1993)

How the values were obtained:
[1] = tested on: cholesterol level in the serum; test: effect of reducing a lipid level in blood (serum cholesterol) in hamsters fed diet containing 1% cholesterol and 0.5% cholic acid; type: in vivo, golden hamster (male); conditions: percent inhibition of serum cholesterol relative to control, 1 mg/10 ml water/kg orally once a day, blood taken on fifth day 3 h after final administration; for inhibition in vivo at 1 mg/kg: Mesocricetus auratus, po, once a day, read-out: Reduction of Cholesterol in Blood
Experimental: The effect of reducing a lipid level in blood by the action of the compounds according to the present invention was determined as follows:
Male golden hamsters weighing from 80 to 100 g were randomly divided into groups. The hamsters were first fed standard laboratory diets (solid feed MF-1 for mouse/rat/hamster, manufactured by Oriental yeast Industries, KK) for 3 days. Then, they were fed the experimental diet containing 1% cholesterol and 0.5% cholic acid ad libitum. At the same time, the compounds of the invention formulated in a shown dose (1 mg/10 ml water/kg) were administrated to the hamsters orally once a day at a determined time. Water was administrated orally to the hamsters of control group in an amount of 10 ml per 1 kg of body weight. On fifth day of administrating the compounds, the hamsters were anesthetized with nembutal (Nembutal injection, manufactured by Dainabbot) three hours after the final administration of the test compound, and a blood sample was taken from abdominal cava. The serum was separated from the sample by centrifuging.
The cholesterol level in the serum was determined by using a blood cholesterol measuring kit, Determina-TC5 manufactured by Kyowa Medix Co. The results are represented by percent inhibition (%) of cholesterol level in serum relative to that of the control group, and shown in the following Table 20.

ACAT = target: T1, ACAT (Mesocricetus auratus, UniProt A0A1U8BU94); test: ACAT inhibitory action (cholesteryl oleate formation from radio-labelled oleoyl coenzyme A, liver microsome); type: biochemical; conditions: hamster liver microsome; inhibition of cholesteryl oleate formation
T1 construct: each tissue specimen containing hamster liver microsome; from tissue; host or cells: hamster liver microsomes
T1 sequence (A0A1U8BU94 1-521): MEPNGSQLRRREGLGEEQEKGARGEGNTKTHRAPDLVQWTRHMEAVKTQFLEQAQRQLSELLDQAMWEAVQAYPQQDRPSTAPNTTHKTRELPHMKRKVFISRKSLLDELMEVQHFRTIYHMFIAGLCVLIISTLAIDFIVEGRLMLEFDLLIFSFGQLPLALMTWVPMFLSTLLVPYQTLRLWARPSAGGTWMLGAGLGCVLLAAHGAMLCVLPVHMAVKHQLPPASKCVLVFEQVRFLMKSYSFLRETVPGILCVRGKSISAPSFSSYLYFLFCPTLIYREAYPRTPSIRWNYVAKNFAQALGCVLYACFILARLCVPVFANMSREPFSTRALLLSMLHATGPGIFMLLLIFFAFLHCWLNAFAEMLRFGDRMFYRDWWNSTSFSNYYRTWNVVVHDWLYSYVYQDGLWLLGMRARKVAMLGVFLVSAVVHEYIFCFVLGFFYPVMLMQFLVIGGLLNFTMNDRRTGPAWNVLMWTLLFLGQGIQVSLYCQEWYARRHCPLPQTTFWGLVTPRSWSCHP
Experimental: The ACAT inhibitory action of the compounds of this invention was determined by the following method.
ACAT activity was determined by measuring the amount of ratio-active cholesteryl oleate formed from radio-labelled oleoyl coenzyme A in each tissue specimen containing hamster liver microsome. The reduction rates (%) in the amount of formation of cholesteryl oleate by the administration of the test compound in various concentrations (μM) as compared with as compared with the amount of formation in the control group to which no test compound was administrated were measured. The ACAT inhibitory action was evaluated by IC50, the concentration of the test compound necessary for inhibiting the activity of the enzyme by 50%, obtained from the reduction rates.

[2] = tested on: cholesterol level in the serum; test: effect of reducing a lipid level in blood (serum cholesterol) in hamsters fed diet containing 1% cholesterol and 0.5% cholic acid; type: in vivo, golden hamster (male); conditions: Mesocricetus auratus, po, 120 h, comparison compound; dose of 5 mg/kg p.o.; read-out: Reduction of Cholesterol in Blood

Row | Compound | IC50 (ACAT) | inhibition in vivo at 1 mg/kg [1] | further results
1 | CCCCC(CNC(=O)Nc1c(C(C)C)cccc1C(C)C)c1ccc2c(c1)OCO2 (single isomer, unassigned) [Example 62] |  |  | Reduction of Cholesterol in Blood [1]: 33%
2 | CCCCCC(CNC(=O)Nc1c(C(C)C)cccc1C(C)C)c1cccc2c1OCO2 (single isomer, unassigned) [Example 63] | 5 nM |  | Reduction of Cholesterol in Blood [1]: 56%
3 | CCCCCC(CNC(=O)Nc1c(C(C)C)cccc1C(C)C)c1cccc2c1OCO2 (single isomer, unassigned) [Example 64] | 12 nM |  | Reduction of Cholesterol in Blood [1]: 27%
4 | CCCCC(CNC(=O)Nc1c(C(C)C)cccc1C(C)C)c1cccc2c1CCCC2 (single isomer, unassigned) [Example 65] | 12 nM | 44% | 
5 | CCCCC(CNC(=O)Nc1c(C(C)C)cccc1C(C)C)c1cccc2c1CCCC2 (single isomer, unassigned) [Example 66] | 28 nM |  | Reduction of Cholesterol in Blood [1]: 40%
6 | CCCCC(CNC(=O)Nc1c(C(C)C)cccc1C(C)C)c1ccc2c(c1)OCO2 (single isomer, unassigned; (+)) [Example 61, (+)-1-(2-(3,4-methylenedioxyphenyl)-hexyl)-3-(2,6-diisopropylphenyl)urea] |  | 45% | 
7 | CC(C)c1cccc(C(C)C)c1NC(=O)NCC(c1ccccc1)C(C)(C)C (stereo not shown) [Comparison, 1-(3,3-dimethyl-2-phenylbutyl)-3-(2,6-diisopropylphenyl)urea] |  |  | inhibition in vivo at 5 mg/kg [2]: 5%
8 | CCCCCC(CNC(=O)Nc1c(C(C)C)cccc1C(C)C)c1cccc2c1OCO2 (stereo not shown) [Example 1, 1-(2-(2,3-methylenedioxyphenyl)heptyl)-3-(2,6-diisopropylphenyl)urea] |  | 34% | 
9 | CCC(CNC(=O)Nc1c(C(C)C)cccc1C(C)C)c1cccc2c1OCO2 (stereo not shown) [Example 3] | 85 nM |  | 
10 | CC(C)c1cccc(C(C)C)c1NC(=O)NCC(c1cccc2c1OCO2)C(C)C (stereo not shown) [Example 4] | 28 nM |  | 
11 | CCCC(CNC(=O)Nc1c(C(C)C)cccc1C(C)C)c1cccc2c1OCO2 (stereo not shown) [Example 5] | 56 nM |  | 
12 | CCCCC(CNC(=O)Nc1c(C(C)C)cccc1C(C)C)c1cccc2c1OCO2 (stereo not shown) [Example 6] |  | 40% | 
13 | CCCCCCC(CNC(=O)Nc1c(C(C)C)cccc1C(C)C)c1cccc2c1OCO2 (stereo not shown) [Example 8] | 11 nM |  | 
14 | CCCCCCCC(CNC(=O)Nc1c(C(C)C)cccc1C(C)C)c1cccc2c1OCO2 (stereo not shown) [Example 9] | 86 nM |  | 
15 | CCC(CC)(CNC(=O)Nc1c(C(C)C)cccc1C(C)C)c1cccc2c1OCO2 [Example 11] | 32 nM | 31% | 
16 | CC(C)c1cccc(C(C)C)c1NC(=O)NCC1(c2cccc3c2OCO3)CCCC1 [Example 12] |  | 10% | 
17 | CC(C)c1cccc(C(C)C)c1NC(=O)NCC1(c2cccc3c2OCO3)CCCCC1 [Example 13] |  | 19% | 
18 | CCCCC(CNC(=O)Nc1c(C(C)C)cccc1C(C)C)c1cccc2c1OCCO2 (stereo not shown) [Example 14] |  | 30% | 
19 | CCCC(CNC(=O)Nc1c(C(C)C)cccc1C(C)C)c1ccc2c(c1)OCO2 (stereo not shown) [Example 16] |  | 34% | 
20 | CCCCC(CNC(=O)Nc1c(C(C)C)cccc1C(C)C)c1ccc2c(c1)OCO2 (stereo not shown) [Example 17] | 9 nM | 34% | 

Row | Compound | IC50 (ACAT) | inhibition in vivo at 1 mg/kg [1] | further results
21 | CCCCCC(CNC(=O)Nc1c(C(C)C)cccc1C(C)C)c1ccc2c(c1)OCO2 (stereo not shown) [Example 18] |  | 33% | 
22 | CCCCCCC(CNC(=O)Nc1c(C(C)C)cccc1C(C)C)c1ccc2c(c1)OCO2 (stereo not shown) [Example 19] |  | 23% | 
23 | CC(C)CCCC(CNC(=O)Nc1c(C(C)C)cccc1C(C)C)c1ccc2c(c1)OCO2 (stereo not shown) [Example 20] |  | 46% | 
24 | CCCCC(CNC(=O)Nc1c(C(C)C)cccc1C(C)C)c1ccc2c(c1)OCCO2 (stereo not shown) [Example 23] | 13 nM | 39% | 
25 | CCCCCC(CNC(=O)Nc1c(C(C)C)cccc1C(C)C)c1ccc2c(c1)OCCO2 (stereo not shown) [Example 24] |  | 41% | 
26 | CCCCCCC(CNC(=O)Nc1c(C(C)C)cccc1C(C)C)c1ccc2c(c1)OCCO2 (stereo not shown) [Example 25] |  | 39% | 
27 | CCCCC(CNC(=O)Nc1c(C(C)C)cccc1C(C)C)c1ccc2c(c1)OCCCO2 (stereo not shown) [Example 26] |  | 40% | 
28 | CCCCCC(C)(CNC(=O)Nc1c(C(C)C)cccc1C(C)C)c1cccc2c1OCO2 (stereo not shown) [Example 29] | 5 nM | 61% | 
29 | CCCC(CCC)(CNC(=O)Nc1c(C(C)C)cccc1C(C)C)c1cccc2c1OCO2 [Example 30] |  | 18% | 
30 | CCCCCC(CCCCC)(CNC(=O)Nc1c(C(C)C)cccc1C(C)C)c1cccc2c1OCO2 [Example 31] |  | 16% | 
31 | CCCCCC(CNC(=O)Nc1c(C)cccc1C)c1cccc2c1OCO2 (stereo not shown) [Example 33, 1-(2-(2,3-methylenedioxyphenyl)heptyl)-3-(2,6-dimethylphenyl)urea] | 38 nM |  | 
32 | CCCCCC(CNC(=O)Nc1c(Cl)cccc1Cl)c1cccc2c1OCO2 (stereo not shown) [Example 34, 1-(2-(2,3-methylenedioxyphenyl)heptyl)-3-(2,6-dichlorophenyl)urea] | 34 nM |  | 
33 | CCCCCC(CNC(=O)Nc1c(CC)cccc1CC)c1cccc2c1OCO2 (stereo not shown) [Example 35] | 32 nM |  | 
34 | CCCCCC(CNC(=O)Nc1c(CC)cccc1C(C)CC)c1cccc2c1OCO2 (stereo not shown) [Example 36] | 26 nM |  | 
35 | CCCCCC(CNC(=O)Nc1c(OC)cccc1OC)c1cccc2c1OCO2 (stereo not shown) [Example 48, 1-(2-(2,3-methylenedioxyphenyl)heptyl)-3-(2,6-dimethoxyphenyl)urea] | 20 nM |  | 
36 | CCCCC(CNC(=O)Nc1c(C(C)C)cccc1C(C)C)c1cc(OC)c2c(c1)OCO2 (stereo not shown) [Example 52, 1-(2-(3,4-methylenedioxy-5-methoxyphenyl)hexyl)-3-(2,6-diisopropylphenyl)urea] |  | 15% | 
37 | CCCCCC(CNC(=S)Nc1c(C(C)C)cccc1C(C)C)c1cccc2c1OCO2 (stereo not shown) [Example 54, 1-(2-(2,3-methylenedioxyphenyl)heptyl)-3-(2,6-diisopropylphenyl)thiourea] |  | 21% | 
38 | CCCCC(CNC(=O)Nc1c(C(C)C)cccc1C(C)C)c1cccc2c1CCCC2 (stereo not shown) [Example 55, 1-(2-(2,3-tetramethylenephenyl)hexyl)-3-(2,6-diisopropylphenyl)urea] |  | 35% | 
39 | CCCCCC(CNC(=O)Nc1c(C(C)C)cccc1C(C)C)c1cccc2c1CCCC2 (stereo not shown) [Example 56] | 4 nM | 42% | 
40 | CC(C)CCCC(CNC(=O)Nc1c(C(C)C)cccc1C(C)C)c1cccc2c1CCCC2 (stereo not shown) [Example 57] |  | 38% | 
